Results on three compounds are retold here after patent publication US11364258B2, “Methods for treating chondrosarcoma using microrna(miR)” (Rhode Island Hospital, priority 2016, dated 2022).

Data set [1] concerns VEGF. Nature of the data set: Angiogenesis antibody array in chondrosarcoma cells (VEGF). Conditions: vs miR control; FIG. 3. It counts as cell-based, human. The protocol:
(§1) Angiogenesis antibody array: Human Angiogenesis Array Kit is a membrane-based sandwich immunoassay. Samples are mixed with a cocktail of biotinylated detection antibodies and then incubated with the array membrane which is spotted in duplicate with capture antibodies to specific target proteins. Captured proteins are visualized using chemiluminescent detection reagents. The signal produced is proportional to the amount of bound analyte. It is sensitive and economical tool to simultaneously detect the relative levels of 55 angiogenesis-related proteins in a single sample.

The test system of data set [2] is placental growth factor (PLGF). Nature of the data set: Angiogenesis antibody array in chondrosarcoma cells (PLGF). The data set is classed as cell-based, human. Conditions: vs miR control; FIG. 3. As for the experimental part: as §1
In a further data set the test system is thrombospondin-1 (TSP-1). Description: Angiogenesis antibody array in chondrosarcoma cells (TSP-1). The data set is classed as cell-based, human. Conditions: vs miR control; FIG. 3. As for the experimental part:
as §1

Data set [3] concerns VEGF. Description: ELISA of VEGF expression in chondrosarcoma cells after transfection. The data set is classed as cell-based, human. The protocol: (§2) Cell lines: Human primary chondrocytes and chondrosarcoma cell lines were cultured as previously described (Kulshreshtha et al., Cell Cycle. 2007; 6:1426-1431). CS-1 (a gift from Dr. Francis Hornicek, Harvard Medical School, Boston, Mass.) was cultured in Gibco RPMI 1640 Medium (Life Technologies, Grand Island, N.Y.), with 10% FBS in a humidified incubator (NuAire Inc, Plymouth, Minn.) under 5% CO2 and either normoxia (ambient oxygen) or hypoxia (2% O2)(11). CS-1 was derived from human grade III chondrosarcoma and metastasizes in a xenograft mouse model(Susa M, Morii T, Yabe H, Horiuchi K, Toyama Y, Weissbach L, et al. Alendronate inhibits growth of high-grade chondrosarcoma cells. Anticancer Res. 2009 June; 29(6):1879-88.). All cells were cultured in a humidified incubator (NuAire Inc, Plymouth, Minn., USA) under 5% CO2 and either normoxia or hypoxia (2% O2) (Lin et al., J Orthop Res. 2004; 22:1175-1181).
Transfections were performed with GenMute transfection reagent (SignaGen Laboratories, Gaithersburg, Md.). pmiRZIP lentivector expressing anti-miR-181a or control sequence (SBI, Mountain View, Calif.) was used for permanent miR-181a knockdown experiments. Transduction-ready FIV-based pseudoviral particles were generated using pPACK-H1 Lentivector Packaging System together with 293TN cell line (SBI), at a titer of 1.06×10^9 IFU/ml. Control was Lenti-scramble Hairpin control pseudoviral particles at a titer of 1×10^9 IFU/ml. Cells were cultured in 12-well plates at a density of 1×10^5/well for 1 day, infected by pseudoviral particles (using a multiplicity of infection of 100 viruses per cell) and cultured for 72 hrs, then selected for puromycin (5 μg/ml) resistance for stable cell lines. Stably transduced cells were used for vitro and in vivo experiments.
ELISA: Conditioned medium was obtained 72 hours after transfection. Soluble VEGF-165 and MMP1 were detected using VEGF and MMP1 Immunoassay kits (R&D Systems, Minneapolis, Minn.) according to manufacturer's instructions. VEGF-165 and MMP1 levels were measured two times for each condition and with normalization to the number of cells at the end of the culture period. Each experiment was repeated three times. Twenty mg of xenograft tumor tissue in RIPA buffer containing proteinase inhibitors (Roche) was homogenized on ice using TissueRuptor (Qiagen). Tissue lysates were centrifuge at 14000 rpm for 30 min, supernatant saved at −80° C. for later use. VEGF-165 levels in xenograft tumor lysates were normalized to total protein.
A general note: An ELISA detects its analyte on a solid surface through an enzyme-linked reagent.

The next data set deals with Met. Nature of the data set: Western blot of Met protein in chondrosarcoma cells. The data set is classed as cell-based, human. Conditions: vs miRNA control; FIG. 5. From the text: Western blot: Cell or tumor lysates containing forty μg of protein were separated via SDS-PAGE (Bio-Rad, Hercules, Calif.) and probed with antibodies for VEGF (VEGFA), MMP-1, SSX, and actin (Santa Cruz Biotechnology, Santa Cruz, Calif.). The fluorescent signals were detected using a fluorescently-labeled secondary goat anti-rabbit antibody (Alexa Fluor 680) (Molecular Probes, Eugene, Oreg.) and analyzed on Licor Odyssey Scanner (LI-COR Biosciences, Lincoln, Nebr.). Western Blot analyses were performed as previously described with specific antibodies (IMGNEX, San Diego, Calif.) and actin antibody (Santa Cruz Biotechnology, Santa Cruz, Calif.). Protein concentrations were determined using the Quick Start Bradford protein assay (Bio-Rad).

For the next data set, the system named is chondrosarcoma cells. Description: CyQUANT cell proliferation assay. The data set is classed as cell-based, human. As for the experimental part:
as §2
Cell proliferation assay: CyQUANT® Cell Proliferation Assay Kit according to manufacturer's protocol

Another data set relates to SSX1. Description: qRT-PCR of SSX1 mRNA in chondrosarcoma cells. To be noted: 20 nM; vs control cells or anti-miR-34a; FIG. 10A. The data set is classed as cell-based, human. The protocol: qRT-PCR: miR expression evaluated with qRT-PCR using Hs_miR-181a primer 5′-AACAUUCAACGCUGU-CGGUGAGU-3′ (SEQ ID NO:198) and 1280: 5′UCCCACCGCUGCCACCC-3′ (SEQ ID NO:199) (Qiagen). The comparative threshold cycle (Ct) method, i.e., 2-ΔΔCt method is used to calculate fold amplification. For quantification of mRNA, total RNA was isolated from chondrocytes, CS-1 cells, and xenograft mouse tumors using the RNAqueous® Kit (Ambion, Austin, Tex., USA). SYBR real-time PCR was carried out using two-step real-time qRT-PCR (Qiagen) with normalization to 18S rRNA (18S). The comparative threshold cycle (Ct) method, i.e., the 2-ΔΔCt method, was used for the calculation of fold amplification. Each experiment was evaluated with three PCR reactions and each experiment was repeated three times, the sample size necessary to maintain power at 0.80 to detect a 50% decrease with an alpha of 0.025 (one-tailed t-test).
ELISA, western blot, qRT-PCR, and cell proliferation assays were performed as described above.
(Quantitative PCR measures a nucleic acid by following its amplification.)

Another data set concerns metastasis. To be noted: literature (Sun et al. 2013; Smith et al. 2004); cited from earlier work.

As for “miR-126: miScript miRNA mimic of miR-126; mature sequence SEQ ID NO: 188 CAUUAUUACUUUUGGUACGCG (listed as RNA, chemistry not given here)”, the “VEGF expression (angiogenesis antibody array)” value in the data set on VEGF [1] is recorded as “reduces the expression”. In data set [2], the “PLGF expression (angiogenesis antibody array)” value was “reduces the expression”. In the data set on thrombospondin-1 (TSP-1), the “TSP-1 expression (angiogenesis antibody array)” value was “reduces the expression”. The “VEGF expression after transient transfection (ELISA)” value in the data set with VEGF [3] (20 nM miR-126, 80 nM anti-miR-126, normoxic and hypoxic conditions, FIG. 2 bottom) is reported as “reduced VEGF expression”. Moreover, the “VEGF expression (ELISA)” value in the data set with VEGF [3] (10-80 nM of miR-126, normoxia and hypoxia (2% oxygen), FIG. 2 top) is “inhibited VEGF expression in a dose-dependent manner”. Besides, the “Met protein expression (western blot)” value in the data set on Met was “expression of Met protein decreased”. For the same compound, in the data set with chondrosarcoma cells (20 nM miR-126 vs control miR, FIG. 6), the “chondrosarcoma cell growth over time” value is reported as “grew more slowly over time”.

“miR-34a: miR-34a mimic, the same sequence as miR-34a (guide AACAUUCAACGCUGUCGGUGAGU; synthetic mimic, further chemistry not given here)”: the “VEGF protein expression (ELISA, western blot)” value with VEGF [3] (20 nM, vs control miR, control anti-miR or anti-miR-34a, FIG. 7A-7C, p<0.02, n=3) is on record as “significantly decreased expression of VEGF protein”. The “VEGF expression over time (ELISA)” value in the data set with VEGF [3] (secreted VEGF, vs control miR, FIG. 8, p<0.001) is recorded as “decreased VEGF expression over time”. Further, the “SSX1 mRNA expression (qRT-PCR)” value with SSX1 is on record as “decreased SSX1 mRNA expression”. Moreover, in the data set with chondrosarcoma cells (miR-34a vs control miR, FIG. 9, p<0.001), the “chondrosarcoma cell growth rates over time” value is listed as “significantly decreased growth rates over time”.

As to `c1cc(CN2CCCNCCNCCCNCC2)ccc1CN1CCCNCCNCCCNCC1` [AMD3100, plerixafor], the metastasis in mice result in the data set on metastasis is on record as “reduce metastasis”.
